Experimental data from PMC10680739 (bioRxiv, 2023).
Where two headings read alike, the source gives them in different places.

Columns and labels:
[1] = tested on: HgmTad2; type: binding, Bacteroides phages (human gut metagenomic libraries)
[2] = tested on: ColiTad1; type: binding, Colidexitribacter sp. OB.20; settings: native gel combined with ITC
[3] = target: T1, SBS Tad1 (Bacillus phage SBSphiJ7, UniProt P0DW57); type: binding, Bacillus cereus phage SBSphiJ7; settings: native gel combined with ITC
T1 sequence (P0DW57 whole entry, looked up): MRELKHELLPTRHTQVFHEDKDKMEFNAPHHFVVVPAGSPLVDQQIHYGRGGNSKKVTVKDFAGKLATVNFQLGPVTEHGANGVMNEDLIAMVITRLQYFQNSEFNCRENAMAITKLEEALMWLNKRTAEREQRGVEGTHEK

[4] = target: SPO1 Tad2 (Bacillus phage SP01, UniProt B6V311); type: binding, Bacillus cereus phage SPO1; settings: HPLC; 40 μM protein, 4 μM ligand
SPO1 Tad2, sequence (B6V311 whole entry, looked up): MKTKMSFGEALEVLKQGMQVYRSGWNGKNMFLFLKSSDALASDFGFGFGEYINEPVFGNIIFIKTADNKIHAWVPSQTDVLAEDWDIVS

[5] = target: T1, SBS Tad1; assay: biochemical; type: binding, Bacillus cereus phage SBSphiJ7
[6] = tested on: HgmTad2; type: binding, Bacteroides phages (human gut metagenomic libraries); settings: HPLC; HgmTad2 of State 1; 40 μM protein, 4 μM ligand
[7] = target: CmTad1 (Clostridioides mangenotii, UniProt P0DW61); type: binding, Clostridioides mangenotii prophage; settings: for binding to CmTad1 in words: among the CDNs tested
CmTad1, sequence (P0DW61 whole entry): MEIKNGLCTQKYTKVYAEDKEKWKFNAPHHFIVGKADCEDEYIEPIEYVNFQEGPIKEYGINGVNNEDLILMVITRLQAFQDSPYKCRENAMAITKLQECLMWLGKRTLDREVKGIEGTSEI

[8] = native PAGE, HgmTad2 of State 1

Nc1ncnc2c1ncn2[C@@H]1O[C@@H]2COP(=O)(O)OP(=O)(O)OC[C@H]3OC(O[C@@H]1[C@@H]2O)[C@H](O)[C@@H]3O [1''-2' gcADPR]
native gel shift of HgmTad2 upon adding ligand ([1]; native gel, purified HgmTad2 in all the three states): shift

Nc1nc2c(ncn2[C@@H]2O[C@@H]3COP(=O)(O)O[C@H]4[C@@H](O)[C@H](n5cnc6c(N)ncnc65)O[C@@H]4COP(=O)(O)O[C@@H]2[C@@H]3O)c(=O)[nH]1 [2',3'-cGAMP]
binding affinity to ColiTad1 in words [2]: high affinity

Nc1nc2c(ncn2[C@@H]2O[C@@H]3COP(=O)(O)O[C@@H]4[C@H](O)[C@@H](COP(=O)(O)O[C@H]3[C@H]2O)O[C@H]4n2cnc3c(N)ncnc32)c(=O)[nH]1 [3',2'-cGAMP]
binding affinity to SBS Tad1 in words [3]: low affinity
binding affinity to ColiTad1 in words [2]: low affinity

Nc1nc2c(ncn2[C@@H]2O[C@@H]3COP(=O)(O)O[C@H]4[C@@H](O)[C@H](n5cnc6c(N)ncnc65)O[C@@H]4COP(=O)(O)O[C@H]3[C@H]2O)c(=O)[nH]1 [3',3'-cGAMP]
depletion of ligand after incubation with SPO1 Tad2 [4]: does not deplete
Kd [5]: 48.7 nM
native gel shift of HgmTad2 upon adding ligand [1, 8]: significant shift
binding affinity to ColiTad1 in words [2]: low affinity
depletion of ligand after incubation with HgmTad2 [6]: depletes
binding to CmTad1 in words [7]: weak binding

Nc1nc2c(ncn2[C@@H]2O[C@@H]3COP(=O)(O)O[C@H]4[C@@H](O)[C@H](n5cnc6c(N)ncnc65)O[C@@H]4COP(=O)(O)O[C@H]4[C@@H](O)[C@H](n5cnc6c(N)ncnc65)O[C@@H]4COP(=O)(O)O[C@H]3[C@H]2O)c(=O)[nH]1 [cAAG]
native gel shift of CmTad1 upon adding ligand ([7]; native PAGE, protein 20 μM): shift

Nc1nc2c(ncn2[C@@H]2O[C@@H]3COP(=O)(O)O[C@H]4[C@@H](O)[C@H](n5cnc6c(=O)[nH]c(N)nc65)O[C@@H]4COP(=O)(O)O[C@H]3[C@H]2O)c(=O)[nH]1 [cGG, 3’,3’-cyclic di-GMP]
native gel shift of HgmTad2 upon adding ligand [1, 8]: significant shift

Nc1ncnc2c1ncn2[C@@H]1O[C@@H]2COP(=O)(O)O[C@H]3[C@@H](O)[C@H](n4ccc(=O)[nH]c4=O)O[C@@H]3COP(=O)(O)O[C@H]2[C@H]1O [cUA]
Kd [5]: 53.9 nM
binding to CmTad1 in words [7]: weak binding

Nc1nc2c(ncn2[C@@H]2O[C@@H]3COP(=O)(O)O[C@H]4[C@@H](O)[C@H](n5ccc(=O)[nH]c5=O)O[C@@H]4COP(=O)(O)O[C@H]3[C@H]2O)c(=O)[nH]1 [cUG]
native gel shift of HgmTad2 upon adding ligand [1, 8]: significant shift
